Test results: patent EP4410284A1, “COMPOUND AND METHOD FOR THE TREATMENT OF ZELLWEGER SPECTRUM DISORDER” (Apteeus, priority 2023, dated 2024)
pEC50: −log10 of the molar value. Like-named read-outs stand apart in the source and are kept apart here.

How the values were obtained:
PEX405 cells [1] = experiment: Catalase import immunofluorescence, high-content screening (% importing cells); format: cell-based, human; settings: PEX405 cells, 3 days
GM16513 cells [2] = experiment: as above; format: cell-based, human; settings: for Emax: read-out: Max Efficacy (% Importing cells)
GM16513 cells [3] = format: cell-based; settings: 3 days, PI positive cells (dead cells)
PEX405 cells [4] = format: cell-based; settings: 3 days, PI positive cells (dead cells)
[5] = Homo sapiens, 72 h, GM16513 cells, dose response with 6 concentrations, 3 days, read-out: EC50
[6] = Homo sapiens, 72 h, GM16513 cells, dose response with 6 concentrations, 3 days

Row | Compound | % PI+ cells (GM16513 cells [3]; 1.3 µM) | % PI+ cells (GM16513 cells [3]; 10 µM) | % PI+ cells (PEX405 cells [4]; 1.3 µM) | % PI+ cells (PEX405 cells [4]; 10 µM) | pEC50 (GM16513 cells [2]; GM16513 cells, dose response with 6 concentrations, 3 days, read-out: EC50) | pEC50 (GM16513 cells [2]; [5]) | % Importing cells (PEX405 cells [1]; 1.3 µM) | % Importing cells (PEX405 cells [1]; 10 µM) | % Importing cells (GM16513 cells [2]; GM16513 cells, 1.3 µM, 3 days) | % Importing cells (GM16513 cells [2]; GM16513 cells, 10 µM, 3 days) | Max Efficacy (% Importing cells) (GM16513 cells [2]; GM16513 cells, dose response with 6 concentrations, 3 days) | Emax (GM16513 cells [2]; [6]) | pEC50 (GM16513 cells [2]; Homo sapiens, 72 h) | Emax (GM16513 cells [2]; Homo sapiens, 72 h)
1 | O=C(NO)c1cccc2ccccc12 [1-Naphthohydroxamic acid] | 1% | 1% | 0% | 0% | – | – | 3% | 2% | 12% | 13% | – | – | – | –
2 | O=C(NO)c1ccc(Cn2c(=O)n(CCc3ccccc3)c(=O)c3ccccc32)cc1 [J22352] | 1% | 3% | 0% | 2% | – | – | 5% | 3% | 30% | 47% | – | – | – | –
3 | CC(=O)Nc1ccc(C(=O)Nc2cc(-c3cccs3)ccc2N)cc1 [BRD-6929] | 1% | 3% | 1% | 1% | – | – | 20% | 38% | 66% | 88% | – | – | – | –
4 | Nc1ccc(-c2cccs2)cc1NC(=O)c1ccc2nc(N3CCNCC3)ccc2c1 [ACY-957] | 1% | 38% | 1% | 55% | – | – | 16% | 13% | 74% | 0% | – | – | – | –
5 | O=C(NO)c1ccc(CNC(=O)c2[nH]c(-c3ccc(O)cc3)cc2-c2ccoc2)cc1.O=C(O)C(F)(F)F [QTX125 (TFA)] | 11% | 30% | 13% | 48% | – | – | 23% | 0% | 83% | 61% | – | – | – | –
6 | O=C(c1ccc(Cl)cc1Cl)n1nnc2ccccc21 [ITSA-1] | 1% | 1% | 0% | 0% | – | – | 3% | 1% | 9% | 12% | – | – | – | –
7 | O=C(NO)c1cnc(NC2(c3ccccc3)CC2)nc1 [ACY-738] | 1% | 3% | 1% | 1% | – | – | 5% | 31% | 31% | 85% | – | – | – | –
8 | Nc1ccccc1NC(=O)c1ccc(CNc2nccc(-c3cccnc3)n2)cc1 [Mocetinostat] | 4% | 9% | 3% | 29% | – | 6.60 | 15% | 9% | 60% | 39% | – | 50% | – | –
9 | Cn1c(CCCCCCC(=O)NO)nc2cc(N(CCCl)CCCl)ccc21 [EDO-S101] | 2% | 8% | 1% | 7% | – | – | 7% | 55% | 35% | 89% | – | – | 5.52 | 90%
10 | Cc1ccc(C(=O)NCCCCCC(=O)Nc2ccccc2N)cc1 [RG2833] | 1% | 3% | – | – | – | – | – | – | – | – | – | – | – | –
11 | O=C(NO)C(c1ccc(-c2ncc(C(F)(F)F)cn2)cc1)c1ccccc1F (stereo not shown) [CHDI-390576] | – | – | – | – | – | – | 2% | 0% | 10% | 4% | – | – | – | –
12 | Cc1nn(C)cc1CN1CCC(c2ccc(C(=O)Nc3ccccc3N)cc2)CC1 [CXD101] | 2% | 7% | 0% | 8% | – | – | 19% | 4% | – | – | – | – | – | –
13 | COc1cc(C=CC(=O)O)cc(OC)c1O (stereo in doubt) [Sinapinic acid] | – | – | – | – | – | – | 3% | 3% | 21% | 18% | – | – | – | –
14 | Oxamflatin | – | – | – | – | – | – | 33% | 15% | 99% | 59% | – | – | – | –

The next lines start with results.

Row | % PI+ cells (GM16513 cells [3]; 1.3 µM) | % PI+ cells (GM16513 cells [3]; 10 µM) | % PI+ cells (PEX405 cells [4]; 1.3 µM) | % PI+ cells (PEX405 cells [4]; 10 µM) | pEC50 (GM16513 cells [2]; GM16513 cells, dose response with 6 concentrations, 3 days, read-out: EC50) | pEC50 (GM16513 cells [2]; [5]) | Compound | % Importing cells (PEX405 cells [1]; 1.3 µM) | % Importing cells (PEX405 cells [1]; 10 µM) | % Importing cells (GM16513 cells [2]; GM16513 cells, 1.3 µM, 3 days) | % Importing cells (GM16513 cells [2]; GM16513 cells, 10 µM, 3 days) | Max Efficacy (% Importing cells) (GM16513 cells [2]; GM16513 cells, dose response with 6 concentrations, 3 days) | Emax (GM16513 cells [2]; [6]) | pEC50 (GM16513 cells [2]; Homo sapiens, 72 h) | Emax (GM16513 cells [2]; Homo sapiens, 72 h)
15 | 2% | 4% | 1% | 3% | – | – | CCCCN(Cc1ccc(C(=O)NO)cc1)C(=O)Nc1ccccc1 [Nexturastat A] | 8% | 27% | 35% | 83% | – | – | – | –
16 | 3% | 90% | 0% | 91% | – | – | Cn1c(/C=C/C(=O)NO)ccc1/C=C/C(=O)c1cccc(F)c1 [MC1568] | 5% | 6% | 25% | 21% | – | – | – | –
17 | 2% | 2% | 1% | 23% | 5.40 | – | O=C(CCCCCCC(=O)Nc1ccc(CN[C@H](C(=O)OC2CCCC2)c2ccccc2)cc1)NO [Tefinostat] | 24% | 24% | 33% | 91% | 97% | – | – | –
18 | 1% | 1% | 0% | 1% | – | – | CCCCNNC(=O)c1ccc(Br)cc1 [UF010] | 3% | 2% | 12% | 16% | – | – | – | –
19 | 1% | 4% | 0% | 2% | – | 5.49 | O=C(CCCCCCNC(=O)c1cnc(N(c2ccccc2)c2ccccc2Cl)nc1)NO [Citarinostat] | 9% | 53% | 47% | 90% | – | 93% | – | –
20 | 2% | 15% | 1% | 16% | – | – | Cc1cc(C)cc(C(=O)NOCCCCCC(=O)NO)c1 [LMK-235] | 45% | 18% | 86% | 95% | – | – | – | –
21 | 1% | 1% | 1% | 1% | – | – | O=C(NO)c1ccc(CC(=O)N(CCO)c2ccccc2)cc1 [HPOB] | 6% | 13% | 29% | 55% | – | – | – | –
22 | 2% | 31% | 1% | 35% | – | – | CC(C)(C)OC(=O)Nc1ccc(-c2cc(C(=O)NCCCCCCC(=O)NO)no2)cc1 [CAY10603] | 22% | 11% | 73% | 85% | – | – | – | –
23 | 1% | 4% | 1% | 1% | – | – | O=C(CCCCCCC(=O)Nc1cccnc1)NO [Pyroxamide] | 5% | 3% | 25% | 11% | – | – | – | –
